Tests used:
[1] = tested on: KB8.5 (KB85 - p-glycoprotein associated multi-drug resistant cell line); test: Inhibition of cellular proliferation in tumor cell lines (CellTiter Glo), KB8.5; assay type: cell-based; settings: KB8.5, 72 hours of continuous compound exposure; read-out: Cell Base Activity GI50 KB8.5
Description: (§1) Cells are plated in 96-well plates at densities of about 500 cells per well of a 96-well plate and are allowed to grow for 24 hours. The cells are then treated with various concentrations of compounds for 72 hours. Then, 100 μl of CellTiter Glo is added. CellTiter Glo is a tetrazolium-based assay using the reagent 3-(4,5-dimethylthiazol-2-yl) 5-(3-carboxymethoxyphenyl)-2-(4-sulfophenyl)-2H-tetrazolium (MTS) (U.S. Pat. No. 5,185,450) (see Promega product catalog #G3580, CellTiter 96 Aqueous One Solution Cell Proliferation Assay). The cells are then incubated in the dark for 30 minutes. The amount of luminescence is determined for each well using a Walloc Trilux plate reader, which correlates with the number of cells per well. The number of viable cells in the wells that receive only DMSO (0.5%) serve as an indication of 0% inhibition, while wells without cells serve as 100% inhibition of cell growth. The compound concentration that results in a 50% growth inhibition (GI50) is determined graphically from sigmoidal dose-response curves of log-transformed dose values versus cell counts (percent of control) at 72 hours of continuous compound exposure.
(§2) The cell lines used are listed below.
(§3) The cell proliferation assay is performed as described above.

[2] = target: T1, motor domain of human KSP (Eg 5, KNSL1) (Homo sapiens, UniProt P52732); test: Assay for determining KSP activity (microtubule-stimulated ATPase, Biomol Green); settings: KSP motor domain 45 nM, microtubules 35 μg/mL, 1 hour at RT; read-out: Biochemical Activity IC50
T1 construct: KSP motor protein (i.e., the KSP motor domain); made in house
T1 sequence (P52732 18-359 limits assumed): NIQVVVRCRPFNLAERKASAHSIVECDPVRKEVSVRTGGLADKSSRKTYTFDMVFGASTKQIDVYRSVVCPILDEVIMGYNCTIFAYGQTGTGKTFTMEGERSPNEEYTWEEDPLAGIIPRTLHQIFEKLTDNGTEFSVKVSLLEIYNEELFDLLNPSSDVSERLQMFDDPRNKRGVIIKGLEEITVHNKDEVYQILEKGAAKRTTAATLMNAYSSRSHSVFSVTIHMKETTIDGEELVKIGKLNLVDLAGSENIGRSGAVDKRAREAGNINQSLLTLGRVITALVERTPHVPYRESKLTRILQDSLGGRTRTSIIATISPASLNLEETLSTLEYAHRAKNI
Excerpt: This example provides a representative in vitro assay for determining KSP activity in vitro. Purified microtubules obtained from bovine brain were purchased from Cytoskeleton Inc. (Denver, Colo., USA). The motor domain of human KSP (Eg 5, KNSL1) was cloned, expressed, and purified to greater than 95% homogeneity. Biomol Green was purchased from Affinity Research Products Ltd. (Matford Court, Exeter, Devon, United Kingdom). Microtubules and KSP motor protein (i.e., the KSP motor domain) were diluted in assay buffer (20 mM Tris-HCl (pH 7.5), 1 mM MgCl2, 10 mM DTT and 0.25 mg/mL BSA) to a final concentration of 35 μg/mL microtubules and 45 nM KSP. The microtubule/KSP mixture was then pre-incubated at 37° C. for 10 min to promote the binding of KSP to microtubules.
To each well of the testing plate (384-well plate) containing 1.25 μL of inhibitor or test compound in DMSO (or DMSO only in the case of controls) were added 25 μL of ATP solution (ATP diluted to a concentration of 300 μM in assay buffer) and 25 μL of the above-described microtubule/KSP solution. The plates were incubated at RT for 1 hour. Following incubation, 65 μL of Biomol Green (a malachite green-based dye that detects the release of inorganic phosphate) was added to each well. The plates were incubated for an additional 5-10 minutes then the absorbance at 630 nm was determined using a Victor II plate reader. The amount of absorbance at 630 nm corresponded to the amount of KSP activity in the samples. The IC50 of each inhibitor or test compound was then determined based on the decrease in absorbance at 630 nm at each concentration, via nonlinear regression using either XLFit for Excel or Prism data analysis software by GraphPad Software Inc.

parental cell line = test: Inhibition of cellular proliferation in tumor cell lines (CellTiter Glo), KB3.1; assay type: cell-based; settings: Homo sapiens, KB 3-1; KB3.1, 72 hours of continuous compound exposure; read-out: Cell Base Activity GI50 KB3.1
Description: as §1, §2, §3

HCT-116 colon carcinoma = test: Inhibition of cellular proliferation in tumor cell lines (CellTiter Glo), HCT-116; assay type: cell-based; settings: Homo sapiens; HCT-116, 72 hours of continuous compound exposure; read-out: Cell Base Activity GI50 HCT-116
Description: as §1, §2, §3

HCT-15 colon carcinoma = test: Inhibition of cellular proliferation in tumor cell lines (CellTiter Glo), HCT-15; assay type: cell-based; settings: Homo sapiens; HCT-15, 72 hours of continuous compound exposure; read-out: Cell Base Activity GI50 HCT-15
Description: as §1, §2, §3

Row | Structure (SMILES) | GI50 [1] | IC50 [2] | GI50 (HCT-116 colon carcinoma) | GI50 (HCT-15 colon carcinoma) | GI50 (parental cell line)
1 | CC(C)(C)[C@H](c1nc(-c2ccccc2)cn1Cc1ccccc1)N1C[C@@H](CCN)OCC1=O [Compound 10, (6R)-6-(2-aminoethyl)-4-[(1R)-1-(1-benzyl-4-phenyl-1H-imidazol-2-yl)-2,2-dimethylpropyl]morpholin-3-one] | – | 100 to 1000 nM | – | – | –
2 | CC(C)[C@H](c1nc(-c2cccc(Cl)c2)cn1Cc1ccccc1)N1CC(CN)OC1=O (stereo partly drawn) [Compound 3, 5-(aminomethyl)-3-{(1R)-1-[1-benzyl-4-(3-chlorophenyl)-1H-imidazol-2-yl]-2-methylpropyl}-1,3-oxazolidin-2-one] | > 1000 nM | 100 to 1000 nM | > 1000 nM | > 1000 nM | > 1000 nM
3 | C[C@@H]1O[C@H](CN)CN([C@@H](c2nc(-c3cccc(F)c3)cn2Cc2ccccc2)C(C)(C)C)C1=O [Compound 14, (2S,6R)-6-(aminomethyl)-4-{(1R)-1-[1-benzyl-4-(3-fluorophenyl)-1H-imidazol-2-yl]-2,2-dimethylpropyl}-2-methylmorpholin-3-one] | > 1000 nM | > 1000 nM | > 1000 nM | > 1000 nM | > 1000 nM
4 | CC(C)[C@H](c1nc(-c2cccc(Cl)c2)cn1Cc1ccccc1)N1C[C@@H](CN)OCC1=O [Compound 8, (6R)-6-(aminomethyl)-4-{(1R)-1-[1-benzyl-4-(3-chlorophenyl)-1H-imidazol-2-yl]-2-methylpropyl}morpholin-3-one] | – | > 1000 nM | – | – | –
5 | CC(C)(C)[C@H](c1nc(-c2ccccc2)cn1Cc1ccccc1)N1C[C@H](CCN)OCC1=O [Compound 11, (6S)-6-(2-aminoethyl)-4-[(1R)-1-(1-benzyl-4-phenyl-1H-imidazol-2-yl)-2,2-dimethylpropyl]morpholin-3-one] | – | 100 to 1000 nM | – | – | –
6 | CC(C)(C)[C@H](c1nc(-c2ccccc2)cn1Cc1ccccc1)N1C[C@H](CN)COC1=O [Compound 4, (5S)-5-(aminomethyl)-3-[(1R)-1-(1-benzyl-4-phenyl-1H-imidazol-2-yl)-2,2-dimethylpropyl]-1,3-oxazinan-2-one] | > 1000 nM | 100 to 1000 nM | – | – | > 1000 nM
7 | CC(C)[C@H](c1nc(-c2cccc(Cl)c2)cn1Cc1ccccc1)N1C[C@H](CCN)OCC1=O [Compound 12, (6S)-6-(2-aminoethyl)-4-{(1R)-1-[1-benzyl-4-(3-chlorophenyl)-1H-imidazol-2-yl]-2-methylpropyl}morpholin-3-one] | – | > 1000 nM | – | – | –
8 | CC(C)(C)[C@H](c1nc(-c2ccccc2)cn1Cc1ccccc1)N1C[C@@H](CN)COC1=O [Compound 5, (5R)-5-(aminomethyl)-3-[(1R)-1-(1-benzyl-4-phenyl-1H-imidazol-2-yl)-2,2-dimethylpropyl]-1,3-oxazinan-2-one] | 100 to 1000 nM | ≤ 100 nM | – | – | 100 to 1000 nM

More lines, main results first:

Row | GI50 [1] | IC50 [2] | GI50 (HCT-116 colon carcinoma) | GI50 (HCT-15 colon carcinoma) | Structure (SMILES) | GI50 (parental cell line)
9 | > 1000 nM | ≤ 100 nM | 100 to 1000 nM | > 1000 nM | CC(C)(C)[C@H](c1nc(-c2ccccc2)cn1Cc1ccccc1)N1C[C@@H](CN)NC(=O)C1=O [Compound 16, (5R)-5-(aminomethyl)-1-[(1R)-1-(1-benzyl-4-phenyl-1H-imidazol-2-yl)-2,2-dimethylpropyl]piperazine-2,3-dione] | 100 to 1000 nM
10 | 100 to 1000 nM | ≤ 100 nM | – | – | CC(C)(C)[C@H](c1nc(-c2ccccc2)cn1Cc1ccccc1)N1C[C@H](CN)COCC1=O [Compound 24, (6S)-6-(aminomethyl)-4-[(1R)-1-(1-benzyl-4-phenyl-1H-imidazol-2-yl)-2,2-dimethylpropyl]-1,4-oxazepan-3-one] | 100 to 1000 nM
11 | – | 100 to 1000 nM | – | – | CC(C)(C)[C@H](c1nc(-c2ccccc2)cn1Cc1ccccc1)N1C[C@H](F)CNCC1=O [Compound 31, (6R)-1-[(1R)-1-(1-benzyl-4-phenyl-1H-imidazol-2-yl)-2,2-dimethylpropyl]-6-fluoro-1,4-diazepan-2-one] | –
12 | > 1000 nM | 100 to 1000 nM | – | – | CC(C)(C)[C@H](c1nc(-c2ccccc2)cn1Cc1ccccc1)N1C[C@@H](F)CNCC1=O [Compound 32, (6S)-1-[(1R)-1-(1-benzyl-4-phenyl-1H-imidazol-2-yl)-2,2-dimethylpropyl]-6-fluoro-1,4-diazepan-2-one] | > 1000 nM
13 | > 1000 nM | 100 to 1000 nM | 100 to 1000 nM | > 1000 nM | CC(C)(C)[C@H](c1nc(-c2ccccc2)cn1Cc1ccccc1)N1C[C@@H](CN)NCCC1=O [Compound 20, (2R)-2-(aminomethyl)-4-[(1R)-1-(1-benzyl-4-phenyl-1H-imidazol-2-yl)-2,2-dimethylpropyl]-1,4-diazepan-5-one] | 100 to 1000 nM
14 | 100 to 1000 nM | ≤ 100 nM | ≤ 100 nM | 100 to 1000 nM | CC(C)(C)[C@H](c1nc(-c2ccccc2)cn1Cc1ccccc1)N1C[C@@H](CN)COCC1=O [Compound 25, (6R)-6-(aminomethyl)-4-[(1R)-1-(1-benzyl-4-phenyl-1H-imidazol-2-yl)-2,2-dimethylpropyl]-1,4-oxazepan-3-one] | ≤ 100 nM
15 | > 1000 nM | 100 to 1000 nM | – | – | CC(C)(C)[C@H](c1nc(-c2ccccc2)cn1Cc1ccccc1)N1C[C@H](CN)OCCC1=O [Compound 22, (2S)-2-(aminomethyl)-4-[(1R)-1-(1-benzyl-4-phenyl-1H-imidazol-2-yl)-2,2-dimethylpropyl]-1,4-oxazepan-5-one] | > 1000 nM
16 | > 1000 nM | ≤ 100 nM | – | – | CC(C)(C)[C@H](c1nc(-c2ccccc2)cn1Cc1ccccc1)N1C[C@@H](CN)N(S(C)(=O)=O)CCC1=O [Compound 21, (2R)-2-(aminomethyl)-4-[(1R)-1-(1-benzyl-4-phenyl-1H-imidazol-2-yl)-2,2-dimethylpropyl]-1-(methylsulfonyl)-1,4-diazepan-5-one] | ≤ 100 nM
17 | > 1000 nM | 100 to 1000 nM | – | – | CC(C)(C)[C@H](c1nc(-c2ccccc2)cn1Cc1ccccc1)N1C[C@@H](CO)NCCC1=O [Compound 19, (2S)-4-[(1R)-1-(1-benzyl-4-phenyl-1H-imidazol-2-yl)-2,2-dimethylpropyl]-2-(hydroxymethyl)-1,4-diazepan-5-one] | > 1000 nM
18 | – | ≤ 100 nM | – | – | CC(C)(C)[C@H](c1nc(-c2ccccc2)cn1Cc1ccccc1)N1C[C@@H](CN)CNC(=O)C1=O [Compound 30, (6S)-6-(aminomethyl)-1-[(1R)-1-(1-benzyl-4-phenyl-1H-imidazol-2-yl)-2,2-dimethylpropyl]-1,4-diazepane-2,3-dione] | –
19 | 100 to 1000 nM | ≤ 100 nM | 100 to 1000 nM | – | CC(C)(C)[C@H](c1nc(-c2cccc(F)c2)cn1Cc1cc(F)cc(F)c1)N1C[C@@H](CN)COCC1=O [Compound 26, (6R)-6-(aminomethyl)-4-{(1R)-1-[1-(3,5-difluorobenzyl)-4-(3-fluorophenyl)-1H-imidazol-2-yl]-2,2-dimethylpropyl}-1,4-oxazepan-3-one] | 100 to 1000 nM

From patent US7820646B2, “Cyclized derivatives as Eg-5 inhibitors” (Novartis Vaccines and Diagnostics, Inc., priority 2007, dated 2010)
